Measured values as given in ChEMBL document CHEMBL5465560, “Selectivity Literature for EUbOPEN Chemogenomic Library” (2024).

Columns and labels:
[1] = target: T1, Testis-specific serine/threonine-protein kinase 1 (Homo sapiens) (UniProt Q9BXA7); conditions: at 10 µM
T1 sequence (whole entry): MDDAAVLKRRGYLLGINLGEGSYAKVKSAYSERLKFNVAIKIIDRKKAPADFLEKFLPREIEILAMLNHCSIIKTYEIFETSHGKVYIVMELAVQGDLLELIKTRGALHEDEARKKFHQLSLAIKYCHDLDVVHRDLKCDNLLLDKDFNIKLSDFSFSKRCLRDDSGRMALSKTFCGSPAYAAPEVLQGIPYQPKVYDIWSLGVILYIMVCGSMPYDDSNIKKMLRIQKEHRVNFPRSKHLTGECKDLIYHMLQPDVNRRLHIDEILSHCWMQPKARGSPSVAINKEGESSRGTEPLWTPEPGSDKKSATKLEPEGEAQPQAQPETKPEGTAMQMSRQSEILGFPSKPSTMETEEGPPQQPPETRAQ

[2] = target: Dual specificity protein kinase CLK3 (Homo sapiens, UniProt P49761); experiment: Selectivity interaction (Kinase panel (DSF assay)) EUB0001559a CLK3
[3] = target: Protein kinase C theta type (Homo sapiens, UniProt Q04759); experiment: Selectivity interaction (KinomeScan (DiscoverX)) EUB0001079a PRKCQ; conditions: at 1 µM
[4] = target: Non-receptor tyrosine-protein kinase TYK2 (Homo sapiens, UniProt P29597); experiment: Selectivity interaction (KinomeScan (DiscoverX)) EUB0001079a TYK2; conditions: at 1 µM
[5] = target: Calcium/calmodulin-dependent protein kinase type II subunit beta (Homo sapiens) (UniProt Q13554); experiment: Selectivity interaction (KinomeScan (DiscoverX)) EUB0000607a CAMK2B; conditions: at 10 µM
[6] = target: Mitogen-activated protein kinase kinase kinase 4 (Homo sapiens) (UniProt Q9Y6R4); experiment: Selectivity interaction (ActivX KiNativ screen (ex vivo kinase selectivity in human PBMCs)) EUB0001619a MAP3K4; assay type: cell-based; conditions: PBMC, at 1 µM
[7] = target: Ribosomal protein S6 kinase alpha-3 (Homo sapiens, UniProt P51812); experiment: Selectivity interaction (ActivX KiNativ screen (ex vivo kinase selectivity in human PBMCs)) EUB0001619a RPS6KA3; assay type: cell-based; conditions: PBMC, at 1 µM
[8] = target: Serine/threonine-protein kinase SMG1 (Homo sapiens) (UniProt Q96Q15); experiment: Selectivity interaction (ActivX KiNativ screen (ex vivo kinase selectivity in human PBMCs)) EUB0001619a SMG1; assay type: cell-based; conditions: PBMC, at 1 µM
[9] = target: Wee1-like protein kinase 2 (Homo sapiens) (UniProt P0C1S8); experiment: Selectivity interaction (KinomeScan (DiscoverX)) EUB0000045b WEE2
[10] = target: T2, Ephrin type-B receptor 3 (Homo sapiens) (UniProt P54753); experiment: Selectivity interaction (KinomeScan (DiscoverX)) EUB0000595a EPHB3; conditions: at 10 µM
T2 sequence (whole entry): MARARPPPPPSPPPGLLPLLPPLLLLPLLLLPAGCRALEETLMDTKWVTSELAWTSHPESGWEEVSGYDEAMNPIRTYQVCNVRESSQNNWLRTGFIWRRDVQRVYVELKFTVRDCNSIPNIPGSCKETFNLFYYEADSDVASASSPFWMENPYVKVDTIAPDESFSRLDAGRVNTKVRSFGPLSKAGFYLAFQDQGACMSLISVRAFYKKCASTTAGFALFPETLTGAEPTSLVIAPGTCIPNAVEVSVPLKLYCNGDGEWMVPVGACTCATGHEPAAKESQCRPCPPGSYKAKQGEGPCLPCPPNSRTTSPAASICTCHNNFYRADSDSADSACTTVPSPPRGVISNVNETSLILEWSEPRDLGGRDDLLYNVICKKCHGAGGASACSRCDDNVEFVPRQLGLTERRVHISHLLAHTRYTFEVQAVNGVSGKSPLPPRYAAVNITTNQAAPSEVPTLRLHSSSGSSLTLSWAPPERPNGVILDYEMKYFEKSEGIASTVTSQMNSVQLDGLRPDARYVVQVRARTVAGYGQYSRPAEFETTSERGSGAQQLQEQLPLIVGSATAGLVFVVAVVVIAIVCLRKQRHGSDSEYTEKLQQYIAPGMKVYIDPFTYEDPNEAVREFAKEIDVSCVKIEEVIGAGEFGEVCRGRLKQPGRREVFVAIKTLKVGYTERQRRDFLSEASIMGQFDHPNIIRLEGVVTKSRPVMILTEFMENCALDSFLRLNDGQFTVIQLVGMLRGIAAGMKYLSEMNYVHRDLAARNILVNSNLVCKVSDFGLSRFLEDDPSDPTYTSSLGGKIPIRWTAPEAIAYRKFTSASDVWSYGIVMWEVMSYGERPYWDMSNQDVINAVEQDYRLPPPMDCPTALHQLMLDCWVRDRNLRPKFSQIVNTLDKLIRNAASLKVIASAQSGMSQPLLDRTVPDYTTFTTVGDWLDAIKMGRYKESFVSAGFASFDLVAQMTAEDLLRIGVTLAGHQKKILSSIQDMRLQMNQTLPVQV

[11] = target: Calcium/calmodulin-dependent protein kinase type II subunit delta (Homo sapiens) (UniProt Q13557); experiment: Selectivity interaction (Kinase panel (KiNativ target engagement assay in Jurkat cells)) EUB0001635a CAMK2D; assay type: cell-based; conditions: Selectivity number of off-targets 0.0, Selectivity number of targets 233.0, Source Knowledge https://www.sciencedirect.com/science/article/pii/S2451945619300674?via%3Dihub, at 1 µM
[12] = target: Mitogen-activated protein kinase kinase kinase kinase 1 (Homo sapiens) (UniProt Q92918); experiment: Selectivity interaction (ActivX KiNativ screen (kinase selectivity in THP-1 cell lysates)) EUB0000639a MAP4K1; assay type: subcellular; conditions: lysate
[13] = target: Tyrosine-protein kinase Blk (Homo sapiens) (UniProt P51451); experiment: Selectivity interaction (KinomeScan (DiscoverX)) EUB0000229b BLK; conditions: at 10 µM
[14] = target: Serine/threonine-protein kinase PLK2 (Homo sapiens, UniProt Q9NYY3); experiment: Selectivity interaction (KinomeScan (DiscoverX)) EUB0000092b PLK2; conditions: at 10 µM
[15] = target: AP2-associated protein kinase 1 (Homo sapiens, UniProt Q2M2I8); experiment: Selectivity interaction (LanthaScreen Eu Kinase Binding Assay) EUB0001632a AAK1; conditions: at 10 µM
AP2-associated protein kinase 1, sequence (Q2M2I8 whole entry, looked up): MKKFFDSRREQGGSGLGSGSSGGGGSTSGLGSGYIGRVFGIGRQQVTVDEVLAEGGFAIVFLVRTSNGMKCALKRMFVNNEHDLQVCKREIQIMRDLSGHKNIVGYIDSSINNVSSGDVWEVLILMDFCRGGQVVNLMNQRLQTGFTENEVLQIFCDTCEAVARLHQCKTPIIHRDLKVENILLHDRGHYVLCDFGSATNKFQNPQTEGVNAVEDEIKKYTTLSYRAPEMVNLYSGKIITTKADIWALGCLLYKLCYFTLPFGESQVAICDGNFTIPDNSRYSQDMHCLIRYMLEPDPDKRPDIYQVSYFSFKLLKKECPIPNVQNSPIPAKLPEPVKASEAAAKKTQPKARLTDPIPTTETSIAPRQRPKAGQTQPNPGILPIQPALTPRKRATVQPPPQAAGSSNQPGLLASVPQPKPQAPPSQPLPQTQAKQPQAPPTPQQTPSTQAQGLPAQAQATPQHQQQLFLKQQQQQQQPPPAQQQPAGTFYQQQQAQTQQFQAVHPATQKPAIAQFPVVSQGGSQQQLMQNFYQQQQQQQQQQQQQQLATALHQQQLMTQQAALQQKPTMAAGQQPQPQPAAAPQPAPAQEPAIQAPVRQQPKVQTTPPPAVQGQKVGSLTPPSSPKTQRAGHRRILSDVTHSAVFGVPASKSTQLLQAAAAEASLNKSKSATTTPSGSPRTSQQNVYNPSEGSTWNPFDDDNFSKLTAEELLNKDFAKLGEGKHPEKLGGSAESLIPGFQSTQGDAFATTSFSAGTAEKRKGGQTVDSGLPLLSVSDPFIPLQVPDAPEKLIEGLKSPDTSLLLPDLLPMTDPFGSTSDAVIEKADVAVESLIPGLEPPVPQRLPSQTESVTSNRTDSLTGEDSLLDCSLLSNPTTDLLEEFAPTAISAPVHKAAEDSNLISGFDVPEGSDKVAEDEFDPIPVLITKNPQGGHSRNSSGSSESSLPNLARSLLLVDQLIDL

Mitogen-activated protein kinase kinase kinase kinase 1 (Homo sapiens), sequence (Q92918 whole entry, looked up): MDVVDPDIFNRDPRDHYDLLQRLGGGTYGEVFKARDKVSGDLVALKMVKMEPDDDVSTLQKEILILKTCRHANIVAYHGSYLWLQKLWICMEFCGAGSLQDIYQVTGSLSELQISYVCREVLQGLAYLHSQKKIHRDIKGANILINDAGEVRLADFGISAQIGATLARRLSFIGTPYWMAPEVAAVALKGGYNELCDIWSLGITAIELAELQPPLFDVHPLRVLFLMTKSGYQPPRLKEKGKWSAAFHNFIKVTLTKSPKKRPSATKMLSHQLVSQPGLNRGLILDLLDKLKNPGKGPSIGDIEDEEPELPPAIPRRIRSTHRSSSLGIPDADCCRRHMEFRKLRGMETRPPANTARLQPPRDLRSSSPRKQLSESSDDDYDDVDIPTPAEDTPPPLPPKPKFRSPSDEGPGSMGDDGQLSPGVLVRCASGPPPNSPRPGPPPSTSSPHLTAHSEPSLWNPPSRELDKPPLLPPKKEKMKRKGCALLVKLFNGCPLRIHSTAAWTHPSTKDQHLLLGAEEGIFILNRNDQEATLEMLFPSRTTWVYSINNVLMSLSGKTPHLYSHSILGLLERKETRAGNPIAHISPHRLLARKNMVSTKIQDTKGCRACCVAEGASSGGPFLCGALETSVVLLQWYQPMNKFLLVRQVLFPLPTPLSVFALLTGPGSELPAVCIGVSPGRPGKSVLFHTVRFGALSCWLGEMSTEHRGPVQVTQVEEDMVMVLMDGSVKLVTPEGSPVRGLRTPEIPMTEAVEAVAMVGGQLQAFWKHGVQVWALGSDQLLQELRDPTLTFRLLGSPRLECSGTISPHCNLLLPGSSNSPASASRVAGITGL
Wee1-like protein kinase 2 (Homo sapiens), sequence (P0C1S8 whole entry, looked up): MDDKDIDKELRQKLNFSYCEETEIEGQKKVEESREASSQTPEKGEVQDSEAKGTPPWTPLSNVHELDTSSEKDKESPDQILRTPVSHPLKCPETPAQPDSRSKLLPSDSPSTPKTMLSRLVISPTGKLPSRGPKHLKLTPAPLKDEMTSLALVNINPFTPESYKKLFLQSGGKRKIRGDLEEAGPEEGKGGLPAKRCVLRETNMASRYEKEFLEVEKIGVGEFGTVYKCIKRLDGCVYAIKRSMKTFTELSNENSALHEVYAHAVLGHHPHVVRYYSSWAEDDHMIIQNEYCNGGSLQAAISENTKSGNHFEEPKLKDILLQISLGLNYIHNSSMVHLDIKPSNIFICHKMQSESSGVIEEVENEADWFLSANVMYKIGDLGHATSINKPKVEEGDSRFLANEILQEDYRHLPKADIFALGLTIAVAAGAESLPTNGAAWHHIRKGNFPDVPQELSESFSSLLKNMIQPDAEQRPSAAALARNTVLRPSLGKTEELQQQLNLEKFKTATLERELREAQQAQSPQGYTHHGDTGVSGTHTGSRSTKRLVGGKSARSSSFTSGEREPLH
Calcium/calmodulin-dependent protein kinase type II subunit delta (Homo sapiens), sequence (Q13557 whole entry): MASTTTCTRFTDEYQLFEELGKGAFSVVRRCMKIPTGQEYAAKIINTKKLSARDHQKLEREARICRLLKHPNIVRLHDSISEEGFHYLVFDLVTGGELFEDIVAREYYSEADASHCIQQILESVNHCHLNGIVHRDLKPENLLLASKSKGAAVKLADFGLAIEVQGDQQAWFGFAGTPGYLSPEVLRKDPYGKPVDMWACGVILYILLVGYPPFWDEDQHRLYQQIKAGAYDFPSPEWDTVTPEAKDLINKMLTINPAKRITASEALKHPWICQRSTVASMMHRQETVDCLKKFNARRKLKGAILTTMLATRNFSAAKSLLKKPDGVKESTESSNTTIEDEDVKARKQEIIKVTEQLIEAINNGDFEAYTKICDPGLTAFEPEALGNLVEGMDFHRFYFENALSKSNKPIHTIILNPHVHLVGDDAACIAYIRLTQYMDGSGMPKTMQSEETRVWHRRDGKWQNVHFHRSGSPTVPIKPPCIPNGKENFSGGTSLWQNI
Non-receptor tyrosine-protein kinase TYK2, sequence (P29597 whole entry): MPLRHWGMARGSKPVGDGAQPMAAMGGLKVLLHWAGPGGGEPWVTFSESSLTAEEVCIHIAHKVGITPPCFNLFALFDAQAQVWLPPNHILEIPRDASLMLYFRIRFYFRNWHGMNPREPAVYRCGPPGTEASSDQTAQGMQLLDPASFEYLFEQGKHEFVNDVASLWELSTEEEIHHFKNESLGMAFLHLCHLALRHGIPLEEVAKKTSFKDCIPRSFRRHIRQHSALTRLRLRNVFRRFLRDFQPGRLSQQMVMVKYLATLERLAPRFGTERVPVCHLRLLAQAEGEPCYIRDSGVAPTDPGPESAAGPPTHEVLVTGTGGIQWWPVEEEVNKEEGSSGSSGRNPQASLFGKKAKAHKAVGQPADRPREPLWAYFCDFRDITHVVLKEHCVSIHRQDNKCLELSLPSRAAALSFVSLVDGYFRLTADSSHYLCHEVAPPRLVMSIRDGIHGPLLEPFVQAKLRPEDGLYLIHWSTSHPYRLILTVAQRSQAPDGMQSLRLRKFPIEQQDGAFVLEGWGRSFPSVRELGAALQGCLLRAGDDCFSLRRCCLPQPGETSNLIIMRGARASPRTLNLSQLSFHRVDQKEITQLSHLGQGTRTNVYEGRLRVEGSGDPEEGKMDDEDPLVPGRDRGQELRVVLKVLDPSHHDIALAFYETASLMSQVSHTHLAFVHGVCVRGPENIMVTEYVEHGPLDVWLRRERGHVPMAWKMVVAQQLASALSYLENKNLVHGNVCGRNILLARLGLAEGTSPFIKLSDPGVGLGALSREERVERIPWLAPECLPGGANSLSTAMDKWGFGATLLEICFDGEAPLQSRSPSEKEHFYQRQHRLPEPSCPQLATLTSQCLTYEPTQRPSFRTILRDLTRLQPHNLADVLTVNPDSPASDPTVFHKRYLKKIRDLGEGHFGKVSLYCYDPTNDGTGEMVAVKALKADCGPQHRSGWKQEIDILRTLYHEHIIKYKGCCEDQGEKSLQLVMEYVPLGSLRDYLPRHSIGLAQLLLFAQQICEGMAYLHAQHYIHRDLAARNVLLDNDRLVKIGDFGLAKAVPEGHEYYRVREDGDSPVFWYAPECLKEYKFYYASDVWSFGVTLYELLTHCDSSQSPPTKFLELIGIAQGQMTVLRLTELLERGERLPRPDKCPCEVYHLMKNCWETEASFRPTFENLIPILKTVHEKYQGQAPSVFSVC
Calcium/calmodulin-dependent protein kinase type II subunit beta (Homo sapiens), sequence (Q13554 whole entry): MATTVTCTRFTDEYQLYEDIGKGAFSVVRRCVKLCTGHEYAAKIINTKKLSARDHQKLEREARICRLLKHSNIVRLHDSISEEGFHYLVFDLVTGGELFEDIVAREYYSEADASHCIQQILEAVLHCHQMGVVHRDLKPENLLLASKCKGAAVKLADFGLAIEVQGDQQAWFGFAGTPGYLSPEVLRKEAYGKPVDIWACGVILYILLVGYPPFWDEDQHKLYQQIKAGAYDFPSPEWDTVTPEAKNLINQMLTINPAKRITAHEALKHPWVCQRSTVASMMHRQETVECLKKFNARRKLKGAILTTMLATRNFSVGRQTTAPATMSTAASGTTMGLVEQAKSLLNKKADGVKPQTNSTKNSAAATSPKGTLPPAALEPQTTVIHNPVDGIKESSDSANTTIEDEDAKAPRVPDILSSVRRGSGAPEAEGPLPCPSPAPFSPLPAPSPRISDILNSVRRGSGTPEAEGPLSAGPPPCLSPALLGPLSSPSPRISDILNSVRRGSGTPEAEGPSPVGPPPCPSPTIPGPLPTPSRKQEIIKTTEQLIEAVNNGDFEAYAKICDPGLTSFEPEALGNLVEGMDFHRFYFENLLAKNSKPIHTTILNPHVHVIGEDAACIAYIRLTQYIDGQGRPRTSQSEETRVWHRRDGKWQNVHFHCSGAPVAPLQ

In the case of CCN(CC)CCCCNc1ncc2cc(-c3cc(OC)cc(OC)c3)c(NC(=O)NC(C)(C)C)nc2n1, the % of control [1] is reported as 100%.
In the case of CN(C(=O)c1cnn2cccnc12)c1cc2c(cc1N1CCOCC1)C(=O)N(C[C@@H](F)C(C)(C)O)C2, the dTM [2] is reported as 0 K.
In the case of Nc1cnc(N2CCc3cc(S(=O)(=O)Nc4c(F)cc(Cl)cc4F)cc(N4CCCC4=O)c32)nc1 [TP-020n], the % of control [3] is reported as 89% and the % of control [4] is reported as 100%.
Work on CNC(=O)Nc1ccc(-c2nc(N3CC4CCC(C3)O4)c3cnn(C4CCC5(CC4)OCCO5)c3n2)cc1 yielded a % of control [5] of 100%.
Work on N#Cc1cccc(-c2c[nH]c3ncnc(N4CCOCC4)c23)c1 yielded a % of inhibition [6] of 30%, a % of inhibition [7] of 10% and a % of inhibition [8] of 13%.
In the case of C=CC(=O)Nc1cc(-n2c(=O)ccc3cnc4ccc(-c5ccc(NS(C)(=O)=O)cc5)cc4c32)ccc1C, the % of control ([9]; at 1 µM) is reported as 66% and the % of control ([9]; at 10 µM) is reported as 100%.
COCC(=O)NC/C=C/c1ccc2ncnc(Nc3ccc(Oc4ccc(C)nc4)c(C)c3)c2c1 [CP-724714] was tested, and the % of control [10] was 86%.
C=CC(=O)Nc1ccc(C(=O)Nc2[nH]nc3c2CN(C(=O)N[C@H](CN(C)C)c2ccccc2)C3(C)C)cc1 was tested, and the % of engagement [11] was 34.1%.
CC[C@@H]1[C@H](F)C(=O)N[C@@H]1COc1nccc2cc(C(N)=O)c(OC)cc12 [ZIMLOVISERTIB] showed a % of inhibition ([12]; at 0.01 µM) of 9.7%, a % of inhibition ([12]; at 0.04 µM) of -10.3% and a % of inhibition ([12]; at 0.2 µM) of -26.5%. The % of inhibition ([12]; at 1 µM) was -6.5% and the % of inhibition ([12]; at 5 µM) was -18.1%.
With COc1cc(N(C)c2ccnc3ccc(C(F)(F)F)cc23)cc(OC)c1OC the % binding [13] was 100%.
With CCC(=O)N1CCN(c2ccc(-n3c(=O)ccc4cnc5ccc(-c6cnc7ccccc7c6)cc5c43)cc2C(F)(F)F)CC1 the % of control [14] was 85%.
Cn1cc(-n2cnc3c(NCc4nc5cc(Cl)c(Cl)cc5[nH]4)nc(N4CCOCC4)nc32)cn1 was tested, and the % of inhibition [15] was 4.16%.
